Source: BindingDB's records for doi:10.1021/jm970389+ (Abbott Laboratories, 1998)

test: Binding potency against Platelet activating factor (PAF) receptor using [3H]C18-PAF as radioligand on rabbit platelet membranes

Point of comparison: `COC(=O)c1cccc2c1c(C(=O)c1ccc(Cn3c(C)nc4c(Cl)nccc43)cc1)cn2C(=O)N(C)C` [3-[4-(4-Chloro-2-methyl-imidazo[4,5-c]pyridin-1-ylmethyl)-benzoyl]-1-dimethylcarbamoyl-1H-indole-4-carboxylic acid methyl ester], Ki 1.8 nM. Against it:
- Cc1nc2cnccc2n1Cc1ccc(C(=O)c2cn(C(=O)N(C)C)c3cccc(NC(=O)c4ccccc4)c23)cc1 [4-Benzoylamino-3-[4-(2-methyl-imidazo[4,5-c]pyridin-1-ylmethyl)-benzoyl]-indole-1-carboxylic acid dimethylamide] — within 1.5-fold, 2 nM
- Cc1nc2cnccc2n1CCN1CCN(S(=O)(=O)c2cn(C(=O)N(C)C)c3cc(-c4ccc(F)cc4)ccc23)CC1 [6-(4-Fluoro-phenyl)-3-{4-[2-(2-methyl-imidazo[4,5-c]pyridin-1-yl)-ethyl]-piperazine-1-sulfonyl}-indole-1-carboxylic acid dimethylamide] — 29-fold higher, 53 nM
- Cc1nc2cnccc2n1CCCCCC(=O)c1cn(C(=O)N(C)C)c2cccc(-c3ccc(F)cc3)c12 [4-(4-Fluoro-phenyl)-3-[6-(2-methyl-imidazo[4,5-c]pyridin-1-yl)-hexanoyl]-indole-1-carboxylic acid dimethylamide] — 1.8-fold higher, 3.2 nM
- Cc1nc2cnccc2n1Cc1ccc(C(=O)c2cn(C(=O)N(C)C)c3cccc(O)c23)cc1 [4-Hydroxy-3-[4-(2-methyl-imidazo[4,5-c]pyridin-1-ylmethyl)-benzoyl]-indole-1-carboxylic acid dimethylamide] — 3.4-fold higher, 6.1 nM
- Cc1nc2cnccc2n1CC(=O)c1cn(C(=O)N(C)C)c2cc(-c3ccc(F)cc3)ccc12 [6-(4-Fluoro-phenyl)-3-[2-(2-methyl-imidazo[4,5-c]pyridin-1-yl)-acetyl]-indole-1-carboxylic acid dimethylamide] — higher, > 1000 nM
- CCOCCn1cc(C(=O)CN2CCC(n3c(C)nc4cnccc43)CC2)c2c(Cl)cccc21 [1-[4-Chloro-1-(2-ethoxy-ethyl)-1H-indol-3-yl]-2-[4-(2-methyl-imidazo[4,5-c]pyridin-1-yl)-piperidin-1-yl]-ethanone] — 8.3-fold higher, 15 nM
- Cc1nc2ccn(Cc3ccc(C(=O)c4cn(C(=O)N(C)C)c5cc(-c6ccc(F)cc6)ccc45)cc3)cc-2n1 [6-(4-Fluoro-phenyl)-3-[4-(2-methyl-imidazo[4,5-c]pyridin-5-ylmethyl)-benzoyl]-indole-1-carboxylic acid dimethylamide] — higher, > 1000 nM
- COc1cccc2c1c(C(=O)c1ccc(Cn3c(C)nc4cnccc43)cc1)cn2C(=O)N(C)C [4-Methoxy-3-[4-(2-methyl-imidazo[4,5-c]pyridin-1-ylmethyl)-benzoyl]-indole-1-carboxylic acid dimethylamide] — within 1.5-fold, 2 nM
- Cc1nc2cnccc2n1Cc1ccc(C(=O)c2cn(C(=O)N(C)C)c3cccc(C(=O)O)c23)cc1 [1-Dimethylcarbamoyl-3-[4-(2-methyl-imidazo[4,5-c]pyridin-1-ylmethyl)-benzoyl]-1H-indole-4-carboxylic acid] — 7.8-fold higher, 14 nM
- C#Cc1cccc2c1c(C(=O)c1ccc(Cn3c(C)nc4cnccc43)cc1)cn2C(=O)N(C)C [4-Ethynyl-3-[4-(2-methyl-imidazo[4,5-c]pyridin-1-ylmethyl)-benzoyl]-indole-1-carboxylic acid dimethylamide] — within 1.5-fold, 1.3 nM
- Cc1nc2ncccc2n1Cc1ccc(C(=O)c2cn(C(=O)N(C)C)c3cccc(Cl)c23)cc1 [4-Chloro-3-[4-(2-methyl-imidazo[4,5-b]pyridin-1-ylmethyl)-benzoyl]-indole-1-carboxylic acid dimethylamide] — 2-fold lower, 0.9 nM
- COC(=O)c1cccc2c1c(C(=O)CCCCCn1c(C)nc3cnccc31)cn2C(=O)N(C)C [1-Dimethylcarbamoyl-3-[6-(2-methyl-imidazo[4,5-c]pyridin-1-yl)-hexanoyl]-1H-indole-4-carboxylic acid methyl ester] — 3.4-fold higher, 6.1 nM
- Cc1nc2ccncc2n1Cc1ccc(C(=O)c2cn(C(=O)N(C)C)c3cc(-c4ccc(F)cc4)ccc23)cc1 [6-(4-Fluoro-phenyl)-3-[4-(2-methyl-imidazo[4,5-c]pyridin-3-ylmethyl)-benzoyl]-indole-1-carboxylic acid dimethylamide] — 340-fold higher, 610 nM
- Cc1[nH]c2ccccc2c1C(=O)c1ccc(Cn2c(C)nc3cnccc32)cc1 [[4-(2-Methyl-imidazo[4,5-c]pyridin-1-ylmethyl)-phenyl]-(2-methyl-1H-indol-3-yl)-methanone] — 27-fold higher, 48 nM
- Cc1nc2cnccc2n1Cc1ccc(C(=O)c2cn(C(=O)N(C)C)c3ccccc23)cc1 [3-[4-(2-Methyl-imidazo[4,5-c]pyridin-1-ylmethyl)-benzoyl]-indole-1-carboxylic acid dimethylamide] — 3.8-fold higher, 6.8 nM
- Cc1nc2cnccc2n1CC1CCN(C(=O)c2cn(C(=O)N(C)C)c3cc(-c4ccc(F)cc4)ccc23)CC1 [6-(4-Fluoro-phenyl)-3-[4-(2-methyl-imidazo[4,5-c]pyridin-1-ylmethyl)-piperidine-1-carbonyl]-indole-1-carboxylic acid dimethylamide] — within 1.5-fold, 2.5 nM
- COC(=O)c1cccc2c1c(C(=O)c1ccc(Cn3c(C)nc4cccnc43)cc1)cn2C(=O)N(C)C [1-Dimethylcarbamoyl-3-[4-(2-methyl-imidazo[4,5-b]pyridin-3-ylmethyl)-benzoyl]-1H-indole-4-carboxylic acid methyl ester] — 5.6-fold higher, 10 nM
- CCOC(=O)c1cccc2c1c(C(=O)c1ccc(Cn3c(C)nc4cnccc43)cc1)cn2C(=O)N(C)C [1-Dimethylcarbamoyl-3-[4-(2-methyl-imidazo[4,5-c]pyridin-1-ylmethyl)-benzoyl]-1H-indole-4-carboxylic acid ethyl ester] — 2.9-fold higher, 5.2 nM
- Cc1nc2cnccc2n1Cc1ccc(C(=O)c2cn(C(=O)N(C)C)c3cccc(C(=O)N(C)C)c23)cc1 [3-[4-(2-Methyl-imidazo[4,5-c]pyridin-1-ylmethyl)-benzoyl]-indole-1,4-dicarboxylic acid bis-dimethylamide] — 6.1-fold higher, 11 nM
- Cc1nc2cnccc2n1Cc1ccc(C(=O)c2cn(C(=O)N(C)C)c3ccc(-c4ccc(F)cc4)cc23)cc1 [5-(4-Fluoro-phenyl)-3-[4-(2-methyl-imidazo[4,5-c]pyridin-1-ylmethyl)-benzoyl]-indole-1-carboxylic acid dimethylamide] — 110-fold higher, 190 nM
- Cc1nc2cnccc2n1Cc1ccc(C(=O)c2c[nH]c3c(OCc4ccccc4)cccc23)cc1 [(7-Benzyloxy-1H-indol-3-yl)-[4-(2-methyl-imidazo[4,5-c]pyridin-1-ylmethyl)-phenyl]-methanone] — 6.7-fold higher, 12 nM
- Cc1nc2cnccc2n1CCCN(C)CC(=O)c1cn(C(=O)N(C)C)c2cc(-c3ccc(F)cc3)ccc12 [6-(4-Fluoro-phenyl)-3-(2-{methyl-[3-(2-methyl-imidazo[4,5-c]pyridin-1-yl)-propyl]-amino}-acetyl)-indole-1-carboxylic acid dimethylamide] — 78-fold higher, 140 nM
- Cc1nc2cnccc2n1Cc1ccc(C(=O)c2c[nH]c3cc(-c4ccc(F)cc4)ccc23)cc1 [[6-(4-Fluoro-phenyl)-1H-indol-3-yl]-[4-(2-methyl-imidazo[4,5-c]pyridin-1-ylmethyl)-phenyl]-methanone] — 42-fold higher, 75 nM
- COC(=O)c1cccc2c1c(C(=O)C1CCC(Cn3c(C)nc4cnccc43)CC1)cn2C(=O)N(C)C (centres undefined) [1-Dimethylcarbamoyl-3-[4-(2-methyl-imidazo[4,5-c]pyridin-1-ylmethyl)-cyclohexanecarbonyl]-1H-indole-4-carboxylic acid methyl ester] — within 1.5-fold, 2.4 nM
- Cc1nc2cnccc2n1CN1CCN(S(=O)(=O)c2cn(C(=O)N(C)C)c3cc(-c4ccc(F)cc4)ccc23)CC1 [6-(4-Fluoro-phenyl)-3-[4-(2-methyl-imidazo[4,5-c]pyridin-1-ylmethyl)-piperazine-1-sulfonyl]-indole-1-carboxylic acid dimethylamide] — 1.5-fold lower, 1.2 nM
- CCc1cccc2c1c(C(=O)c1ccc(Cn3c(C)nc4cnccc43)cc1)cn2C(=O)N(C)C [4-Ethyl-3-[4-(2-methyl-imidazo[4,5-c]pyridin-1-ylmethyl)-benzoyl]-indole-1-carboxylic acid dimethylamide] — 2-fold lower, 0.91 nM
- COC(=O)c1cccc2c1c(C(=O)Cc1ccc(-n3c(C)nc4cnccc43)cc1)cn2C(=O)N(C)C [1-Dimethylcarbamoyl-3-{2-[4-(2-methyl-imidazo[4,5-c]pyridin-1-yl)-phenyl]-acetyl}-1H-indole-4-carboxylic acid methyl ester] — 2.9-fold lower, 0.63 nM
- Cc1nc2cnccc2n1C1CCN(C(=O)c2cn(C(=O)N(C)C)c3cc(-c4ccc(F)cc4)ccc23)CC1 [6-(4-Fluoro-phenyl)-3-[4-(2-methyl-imidazo[4,5-c]pyridin-1-yl)-piperidine-1-carbonyl]-indole-1-carboxylic acid dimethylamide] — 1.9-fold higher, 3.4 nM
- Cc1nc2cnccc2n1Cc1ccc(S(=O)(=O)c2cn(C(=O)N(C)C)c3ccccc23)cc1 [3-[4-(2-Methyl-imidazo[4,5-c]pyridin-1-ylmethyl)-benzenesulfonyl]-indole-1-carboxylic acid dimethylamide] — 6.7-fold higher, 12 nM
- COC(=O)c1cc(Br)cc2c1c(C(=O)c1ccc(Cn3c(C)nc4cnccc43)cc1)cn2C(=O)N(C)C [6-Bromo-1-dimethylcarbamoyl-3-[4-(2-methyl-imidazo[4,5-c]pyridin-1-ylmethyl)-benzoyl]-1H-indole-4-carboxylic acid methyl ester] — within 1.5-fold, 1.4 nM
- COC(=O)c1cccc2c1c(C(=O)c1ccc(Cn3c(C)nc4cnccc43)c(F)c1)cn2C(=O)N(C)C [1-Dimethylcarbamoyl-3-[3-fluoro-4-(2-methyl-imidazo[4,5-c]pyridin-1-ylmethyl)-benzoyl]-1H-indole-4-carboxylic acid methyl ester] — 2.8-fold higher, 5 nM
- Cc1nc2cnccc2n1-c1ccc(C(=O)c2cn(C(=O)N(C)C)c3cc(-c4ccc(F)cc4)ccc23)cc1 [6-(4-Fluoro-phenyl)-3-[4-(2-methyl-imidazo[4,5-c]pyridin-1-yl)-benzoyl]-indole-1-carboxylic acid dimethylamide] — 140-fold higher, 260 nM
- COC(=O)c1cccc2c1c(C(=O)c1ccc(Cn3c(C)nc4ccccc43)cc1)cn2C(=O)N1CCCC1 [3-[4-(2-Methyl-benzoimidazol-1-ylmethyl)-benzoyl]-1-(pyrrolidine-1-carbonyl)-1H-indole-4-carboxylic acid methyl ester] — within 1.5-fold, 1.7 nM
